For experiment [1], the target named is T1, Transcription regulator protein BACH1 (Homo sapiens) (UniProt O14867).
T1 sequence (whole entry): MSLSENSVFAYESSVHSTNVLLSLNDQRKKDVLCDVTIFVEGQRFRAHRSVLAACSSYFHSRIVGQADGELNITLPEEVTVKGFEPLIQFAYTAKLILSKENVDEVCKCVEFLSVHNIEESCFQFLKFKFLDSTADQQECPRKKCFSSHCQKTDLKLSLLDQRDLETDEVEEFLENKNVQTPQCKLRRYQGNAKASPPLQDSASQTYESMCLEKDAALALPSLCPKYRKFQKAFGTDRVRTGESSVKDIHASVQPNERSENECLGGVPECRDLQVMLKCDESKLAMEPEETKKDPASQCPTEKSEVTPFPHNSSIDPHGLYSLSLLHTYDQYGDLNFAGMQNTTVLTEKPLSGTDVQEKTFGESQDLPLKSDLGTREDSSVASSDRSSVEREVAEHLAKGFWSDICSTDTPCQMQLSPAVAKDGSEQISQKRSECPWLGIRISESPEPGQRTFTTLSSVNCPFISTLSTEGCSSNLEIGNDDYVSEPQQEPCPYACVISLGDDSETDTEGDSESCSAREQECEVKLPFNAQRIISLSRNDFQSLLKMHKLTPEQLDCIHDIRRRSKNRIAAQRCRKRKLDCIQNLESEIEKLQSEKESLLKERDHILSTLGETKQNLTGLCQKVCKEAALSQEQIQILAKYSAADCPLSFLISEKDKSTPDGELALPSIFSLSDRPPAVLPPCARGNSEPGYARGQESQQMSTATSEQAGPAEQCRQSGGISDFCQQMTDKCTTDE
Nature of the experiment: Inhibition of Bach1 in normal human lung fibroblasts assessed as induction of HMOX protein expression at 0.156 uM incubated for 16 to 18 hrs by immunostaining relative to control.

For experiment [2], the target named is T1, Transcription regulator protein BACH1 (Homo sapiens). The experiment can be described thus: Inhibition of Bach1 in normal human lung fibroblasts assessed as induction of HMOX protein expression at 0.156 uM in presence of 3 uM Nrf2 activator DMF incubated for 16 to 18 hrs by immunostaining relative to control.
Experiment [3] has the same target. Nature of the experiment: Inhibition of Bach1 in normal human lung fibroblasts assessed as induction of HMOX protein expression at 0.019 uM in presence of 10 uM Nrf2 activator DMF incubated for 16 to 18 hrs by immunostaining relative to control.
For experiment [4] the target is unchanged. The experiment can be described thus: Inhibition of Bach1 in normal human lung fibroblasts assessed as induction of HMOX protein expression by measuring HMOX positive cells level at 0.156 uM in presence of 0.03 uM Nrf2 activator DMF incubated for 16 to 18 hrs by immunostaining relative to control DMSO. The arrangement: scale not given: the % may be the effect or the level left.

Experiment [5] has the same target. The experiment can be described thus: Inhibition of Bach1 in normal human lung fibroblasts assessed as induction of HMOX protein expression by measuring HMOX positive cells level at 0.156 uM in presence of 1 uM Nrf2 activator DMF incubated for 16 to 18 hrs by immunostaining relative to control DMSO. Details: scale not given: the % may be the effect or the level left.

The target is the same in experiment [6]. The experiment can be described thus: Inhibition of Bach1 in normal human lung fibroblasts assessed as induction of HMOX protein expression at 0.078 uM in presence of 0.03 uM Nrf2 activator DMF incubated for 16 to 18 hrs by immunostaining relative to control.
Experiment [7] shares this target. Nature of the experiment: Inhibition of Bach1 in normal human lung fibroblasts assessed as induction of HMOX protein expression at 0.039 uM in presence of 1 uM Nrf2 activator DMF incubated for 16 to 18 hrs by immunostaining relative to control.
Experiment [8] has the same target. Nature of the experiment: Inhibition of Bach1 in normal human lung fibroblasts assessed as induction of HMOX protein expression by measuring HMOX positive cells level at 0.078 uM in presence of 1 uM Nrf2 activator DMF incubated for 16 to 18 hrs by immunostaining relative to control DMSO. Details: scale not given: the % may be the effect or the level left.
The target is the same in experiment [9]. The experiment can be described thus: Inhibition of Bach1 in normal human lung fibroblasts assessed as induction of HMOX protein expression by measuring HMOX positive cells level at 0.078 uM in presence of 0.3 uM Nrf2 activator DMF incubated for 16 to 18 hrs by immunostaining relative to control DMSO. The arrangement: scale not given: the % may be the effect or the level left.

The target is the same in experiment [10]. The experiment can be described thus: Inhibition of Bach1 in normal human lung fibroblasts assessed as induction of HMOX protein expression at 0.078 uM in presence of 0.3 uM Nrf2 activator DMF incubated for 16 to 18 hrs by immunostaining relative to control.
For experiment [11] the target is unchanged. The experiment can be described thus: Inhibition of Bach1 in normal human lung fibroblasts assessed as induction of HMOX protein expression at 0.039 uM in presence of 10 uM Nrf2 activator DMF incubated for 16 to 18 hrs by immunostaining relative to control.
Experiment [12] has the same target. Nature of the experiment: Inhibition of Bach1 in normal human lung fibroblasts assessed as induction of HMOX protein expression at 0.039 uM in presence of 0.3 uM Nrf2 activator DMF incubated for 16 to 18 hrs by immunostaining relative to control.
For experiment [13] the target is unchanged. Nature of the experiment: Inhibition of Bach1 in normal human lung fibroblasts assessed as induction of HMOX protein expression at 0.019 uM in presence of 0.1 uM Nrf2 activator DMF incubated for 16 to 18 hrs by immunostaining relative to control.
For experiment [14] the target is unchanged. Nature of the experiment: Inhibition of Bach1 in normal human lung fibroblasts assessed as induction of HMOX protein expression by measuring HMOX positive cells level at 0.019 uM in presence of 10 uM Nrf2 activator DMF incubated for 16 to 18 hrs by immunostaining relative to control DMSO. Details: scale not given: the % may be the effect or the level left.

For experiment [15] the target is unchanged. Nature of the experiment: Inhibition of Bach1 in normal human lung fibroblasts assessed as induction of HMOX protein expression by measuring HMOX positive cells level at 0.019 uM in presence of 30 uM Nrf2 activator DMF incubated for 16 to 18 hrs by immunostaining relative to control DMSO. Details: scale not given: the % may be the effect or the level left.

Experiment [16] shares this target. Nature of the experiment: Inhibition of Bach1 in normal human lung fibroblasts assessed as induction of HMOX protein expression at 0.039 uM in presence of 30 uM Nrf2 activator DMF incubated for 16 to 18 hrs by immunostaining relative to control.
Experiment [17] has the same target. The experiment can be described thus: Inhibition of Bach1 in normal human lung fibroblasts assessed as induction of HMOX protein expression by measuring HMOX positive cells level at 0.039 uM in presence of 0.1 uM Nrf2 activator DMF incubated for 16 to 18 hrs by immunostaining relative to control DMSO. The arrangement: scale not given: the % may be the effect or the level left.

Experiment [18] shares this target. The experiment can be described thus: Inhibition of Bach1 in normal human lung fibroblasts assessed as induction of HMOX protein expression at 0.039 uM in presence of 0.1 uM Nrf2 activator DMF incubated for 16 to 18 hrs by immunostaining relative to control.
Experiment [19] has the same target. Nature of the experiment: Inhibition of Bach1 in normal human lung fibroblasts assessed as induction of HMOX protein expression by measuring HMOX positive cells level at 0.078 uM in presence of 0.1 uM Nrf2 activator DMF incubated for 16 to 18 hrs by immunostaining relative to control DMSO. The arrangement: scale not given: the % may be the effect or the level left.

For experiment [20] the target is unchanged. The experiment can be described thus: Inhibition of Bach1 in normal human lung fibroblasts assessed as induction of HMOX protein expression by measuring HMOX positive cells level at 0.039 uM incubated for 16 to 18 hrs by immunostaining relative to control DMSO. Details: scale not given: the % may be the effect or the level left.

On to `CNC(=O)c1ccc2c(c1)nc(Nc1nc3ccc(OC(F)(F)F)cc3s1)n2C`, for which, in [1], the fold change (FC) was found to be 3.46.
Take `Cn1c(Nc2nc3ccc(C(F)(F)F)cc3s2)nc2cc(C(=O)NCCOCCO)ccc21`: the fold change (FC) in experiment [2] is 7.69; in experiment [3] it was 5.12; in experiment [1] it was 6.46; in [6], 2.35; in experiment [7] it was 2.6; in experiment [10] it was 3.21. The fold change (FC) in experiment [11] amounted to 5.64; in experiment [12], 1.81; in experiment [13], 1.23; in experiment [16] it was 5.52; in [18], 1.52. Further, the Activity in experiment [4] was 92.5%; in [5], 97.7%; in experiment [8], 84.8%; in experiment [9], 61.5%; in [14], 96.1%; in experiment [15], 84%. The Activity came to 6.75% in [17], 44.6% in experiment [19] and 28% in experiment [20].
Take `COCCNC(=O)c1cnc2c(c1)nc(Nc1nc3ccc(OC(F)(F)F)cc3s1)n2C`: the fold change (FC) in [2] is 3.63; in [3], 4.94; in experiment [1], 1.96; in [6], 1.12; in [7] it was 1.97; in experiment [10], 1.43. Moreover, the fold change (FC) in [11] is 4.86; in experiment [12] it was 1.59; in experiment [13], 1.13; in experiment [16] it was 4.82; in [18], 1.08. The Activity in experiment [4] stood at 8.51%; in [5], 57.7%; in experiment [8], 29.4%; in experiment [9] it was 10.3%; in experiment [14], 92.6%; in experiment [15], 84.9%. Besides, the figures for the Activity in experiment [17], in experiment [19] and in [20] were 2.54%, 7.05% and 5.3%, respectively.
`CN(C)C(=O)CNC(=O)c1ccc2c(c1)nc(Nc1nc3ccc(C(F)(F)F)cc3s1)n2C`: the fold change (FC) was found to be 4.57 in [2]; 5.75 in experiment [3]; 2.66 in experiment [1]; 1.37 in [6]; 2.1 in experiment [7]; 1.73 in [10]. Further, the fold change (FC) was determined as 5.13 in experiment [11]; 1.61 in experiment [12]; 1.15 in [13]; 4.9 in [16]; 1.35 in [18]. For the same molecule, the Activity in experiment [4] turned out to be 22.1%; in experiment [5] it was 66.7%; in experiment [8] it was 37.7%; in [9], 16.2%; in experiment [14] it was 94.2%; in [15], 84.2%. Further, the Activity in experiment [17] came out at 6.82%; in [19] it was 8.24%; in experiment [20], 2.31%.

Values taken from ChEMBL document CHEMBL4421728, “Bach1 Inhibitors in Combination with Nrf2 Activators and Pharmaceutical Compositions Thereof” (2017).
